The structures appear in SMILES notation.

A short description of this data set: Cytotoxicity, MTT assay. To be noted: human, SH-SY5Y neuroblastoma cells, 24 h incubation. The class given is cell-based. The procedure: The cytotoxicity profile was assessed for compound 6 using the human neuroblastoma SH-SY5Y cell line and MTT assay. At a concentration of 10 µM, compound 6 was completely devoid of cytotoxicity, with viability reaching 95.1 ± 2.6%.
The neuroblastoma cell line SH-SY5Y (Sigma-Aldrich, St. Louis, MO, USA) was used to evaluate cytotoxicity of the tested compounds. […]
The MTT (3-(4,5-dimethylthiazol-2-yl)-2,5-diphenyl-tetraziolium bromide (Sigma–Aldrich) reduction assay was used for measurement of the compounds’ cytotoxicity, according to Mosmann. MTT is a water-soluble tetrazolium salt that is converted to purple formazan by succinate dehydrogenase in mitochondria of viable cells. Cell viability was detected after 24-h incubation with the tested substances. For the assay, SH-SY5Y cells were seeded into 96-well plates in 100 µL volume and at a density of 20 × 10^3. Cells were allowed to attach overnight before the treatment. The stock solutions of tested compounds were prepared in dimethylsulfoxide (DMSO, Sigma-Aldrich), which were serially diluted in DMEM and added to the cells in a 96-well culture plate. […] The optical density of each well was measured using a Spark® multimode microplate reader (Tecan Group Ltd., Männedorf, Switzerland) at 570 nm. The cell viability was expressed as a percentage of the untreated control. […]
(In general: Tetrazolium assays rely on reduction of a dye to a coloured formazan, in cell work by metabolically active cells.)

Take `C=CCOc1ccc(CCN(CC=C)Cc2ccc(OC)c(OCc3ccccc3)c2)cc1` [Compound 6, N-allyl-N-(3-benzyloxy-4-methoxybenzyl)-2-(4-allyloxyphenyl)ethan-1-amine]: the viability (in general, the share of living cells, or the viability signal relative to a control) at 24 h, 10 µM came out at 95.1 ± 2.6%.

These data come from paper PMC8348983 (International Journal of Molecular Sciences, 2021).
